Data from patent US20250221983A1, “PHARMACEUTICAL COMPOSITION FOR PREVENTING RELAPSE INTO CANNABIS USE AND APPLICATION THEREOF” (Shenzhen ScienCare Pharmaceutical Co., Ltd, priority 2023, published 2025).
Entries after “also recorded” stand apart in the source; their conditions may differ.

Key:
Format in all cases: in vivo, LE rats
[1] = system: LE rat self-administration; test: Addiction formation: WIN55,212-2 self-administration training
Procedure: (§1) In each self-administration process, the effective lever was activated, and the injection system performed automatic administration ([…]). Each injection was about 0.1 mL, with a duration of 4 s-6 s. Meanwhile, each injection would be accompanied by the effective lever light turning on for 10 s and the room light turning off for 20 s. […] Data of activating the ineffective lever was recorded, but no drug injection was given. During the training, the computer automatically recorded the number of effective and ineffective lever presses and the number of injections. During the training, food was restricted to 12 g.
In the control group and rimonabant group, sham operations were performed. After 3 days of postoperative care, addiction formation training was started on the fourth day.
In the control group and rimonabant group, rats were administered the corresponding compound 15 min before the daily training. The rimonabant was at a dosage of 2 mg/kg, i.p. In the control group, rats were administered normal saline, and in the implant administration groups, there would be no administration. The training operation was the same as the self-administration training in example 1. During the training, the computer automatically recorded the number of effective and ineffective lever presses and the number of injections. During the training, food was restricted to 12 g.

[2] = system: LE rat self-administration model; test: Environmental cue-induced relapse test in WIN55,212-2 self-administration model; settings: rimonabant 2 mg/kg, implants 4 tablets/rat
Procedure: as §1

[3] = system: LE rat self-administration; test: Regression of drug-seeking behavior after self-administration training
Procedure: After the establishment of the self-administration model, the rats received 2 h of environmental regression for each round of regression training. During the regression, only the spatial environment and lever during the training were presented, without other clues such as lights and pump sounds as well as drug injections. The computer automatically recorded the number of behavioral responses of rats, and the rats reached the regression criteria (i.e., the total number of effective lever presses decreased to 20% of the total number of effective lever presses on the first day of the regression training or less than 10 times).

[4] = system: LE rat self-administration model; test: Drug (WIN55,212-2) and environmental cue-induced relapse test in self-administration model; settings: rimonabant 2 mg/kg, implants 4 tablets/rat
Procedure: The rats received 2 h of environmental regression again. During the regression, only the spatial environment during the self-administration training was presented, without other clues such as lights and pump sounds as well as drug injections. The computer automatically recorded the number of behavioral responses of rats, and the regression was continued until reaching the criteria.
In the rimonabant group, rats were administered the rimonabant injection (2 mg/kg, ip) 15 min before the test through intraperitoneal injection at a dose of 2 mg per kilogram of body weight. In the control group, rats were administered normal saline 15 min before the test. In the implant administration groups, there would be no administration. All rats were administered cannabis (WIN55,212-2 injection 0.3 mg/kg, ip) through intraperitoneal injection at a dose of […] of body weight, and then a 2-h drug and environmental cue-induced relapse test was immediately performed. The cues were consistent with those of self-administration training, including levers and syringe pump sound, but no drug in the syringe pump. The number of injections and effective lever pressing data were recorded by the computer.
In the control group, rats were administered normal saline 15 min before the test, and in the implant groups, there would be no administration. All rats were administered WIN55,212-2 (0.3 mg/kg, i.p) through intraperitoneal administration, and then a 2-h drug and environmental cue-induced relapse test was immediately performed. The cues were consistent with those of self-administration training, including levers and syringe pump sound, but no drug in the syringe pump. The number of injections and effective lever pressing data were recorded by the computer.

[5] = female LE rats, rimonabant 2 mg/kg, implants 4 tablets/rat, n = 10
[6] = 2 h environmental cue-induced relapse test, n = 10
[7] = last regression before cue test, n = 10
[8] = 2 h test after WIN55,212-2 ip, n = 10
[9] = re-regression before cue + drug test, n = 10

Cc1c(C(=O)NN2CCCCC2)nn(-c2ccc(Cl)cc2Cl)c1-c1ccc(Cl)cc1 [Rimonabant]
inhibition of the increase in the number of effective lever presses caused by addiction formation of win55,212-2, in words ([1]; compared with the control group): significantly inhibited; also recorded: significant inhibition effect | Addiction formation (26 days): Number of effective lever presses [1, 5]: 45.70 ± 8.21 | Addiction formation (26 days): Number of ineffective lever presses [1, 5]: 9.49 ± 1.05 | Number of effective lever presses, Cue priming [2, 6]: 57.70 ± 10.27 | Number of ineffective lever presses, Cue priming [2, 6]: 12.10 ± 3.33 | Number of effective lever presses, Last-Ext [2, 7]: 6.80 ± 1.62 | Number of ineffective lever presses, Last-Ext [2, 7]: 3.10 ± 0.86 | cue-induced relapse behavior (number of effective lever presses compared with the control group), in words [2]: no significant inhibition effect; also recorded: not significant | effect on the regression process of cannabis addiction, in words ([3]; compared with other groups): may accelerate the regression process and reduce the regression days | Regression (13 sessions): First stabilization [3, 5]: 7 days | Regression (13 sessions): Number of effective lever presses [3, 5]: 9.27 ± 2.21 | Number of effective lever presses, Cue + drug priming [4, 8]: 63.50 ± 16.15 | Number of ineffective lever presses, Cue + drug priming [4, 8]: 8.10 ± 2.08 | Number of effective lever presses, Re-Ext [4, 9]: 10.30 ± 2.72 | Number of ineffective lever presses, Re-Ext [4, 9]: 5.20 ± 3.0 | cue and drug-induced relapse behavior (number of effective lever presses compared with the control group), in words [4]: no significant inhibition effect; also recorded: not significant
